# Test results as given in US12098145B2 (Libra Therapeutics, Inc., priority 2022, dated 2024).
# Like-named read-outs stand apart in the source and are kept apart here.
# Legend:
# TRPML1 = target: T1, TRPML1 (Homo sapiens, UniProt Q9GZU1); assay: Cellular TRPML1 assay (FLIPR, GCaMP6f calcium read-out); assay type: cell-based
# T1 construct: expressed in transfected cells; host or cells: HEK T-REx cells stably expressing GCaMP6f and TRPML1
# In short: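 HEK T-REx cells stably expressing TRPML1 and GCaMP6f, seeded 24 h before in Optimem + 0.5% FBS. After ~10 min pre-incubation at room temperature, compounds in Ca2+-free Tyrode's buffer were injected on FLIPR Tetra (final DMSO 0.5%). Calcium fluorescence kinetics followed for 300 s.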
# TFEB = TFEB translocation assay (TFEB reporter in U2OS cells, imaging); assay type: cell-based; settings: Homo sapiens; U2OS cell line with TFEB reporter, 2 hours incubation, nucleus to cytoplasm ratio, normalized to Torin-1; read-out: TFEB Translocation pEC50 (converted)
# Experimental: Example B: TFEB Translocation Assay
# Reporter TFEB: the reporter is fused to a sequence of monomeric red fluorescent protein.
# The reporter TFEB have been stably expressed in U2OS cell line and used as read-out.
# Experiments were performed in 384 MTP well format. Cells were seeded in 384-w at a density of 4000 cells/well in 20 μl/well complete growth medium without antibiotics. Twenty-four hours later, cells were treated with compounds and incubated for further 2 hours. Then the cells were imaged and assayed for the response to various compounds using the reporter for TFEB expressed in the cells as readout.
# The experiments were performed in a 384-well format according to the following procedure: • 24 h after seeding, cell culture medium was carefully removed and replaced with 20 μl of Opti-MEM (30′ incubation at 37° C. before compound addition) • Then, cells were incubated with compounds diluted in Opti-MEM+0.015% Tween 80 at the desired concentration, with the reference molecule (agonist) Torin-1 at a top concentration of 1 μM (max signal), and with the other reference molecule (agonist) MLSA-5 at top concentration of 20 μM for 2 hours at 37° C. and 5% CO2. The final percentage of DMSO was 0.5% in all the conditions. • Staining of the nuclei was obtained by incubating the cells with 24 μM/well of Hoechst 3342 in standard Tyrode's buffer for 15 min at RT • Then the cells were fixed with PFA 4% for 30 min at RT • After three washes with standard Tyrode's buffer, samples were acquired by recording two fluorescence emission channels (DS-red and blue) at 20× magnification and with at least 3 fields of view per well in an Operetta CLS microscope (PerkinElmer). • Image analysis was performed by using Harmony software (PerkinElmer). The image analysis involved the following steps: flat-field illumination correction, nuclei segmentation, cytoplasm segmentation and calculation of intensity fluorescence in the cytosol and nuclei compartments. Measurements of signal intensity ratio (nucleus to cytoplasm) was used to obtain information on the effects of compounds on the TFEB translocation. • Data from image analysis measurements were finally loaded and analyzed for normalization and fitting procedures in Genedata Screener© software. Data Analysis
# Feature: Mean translocation ratio (mean/well)
# Data normalization: Stimulator—Neutral control
# The GeneData Screener method we have used, normalizes the median of the Stimulator control wells (Torin-1) to 100% and the median of the Neutral control wells (DMSO) to 0% Activity[%]=100*(x−<Min>)/(<“Max”>−<Min>)
# [1] = HEKT-REx/GCaMP6f/TRPML1 cells, FLIPR TETRA, kinetic response over 300 seconds, read-out: TRPML1 FLIPR pEC50 (converted)
# T1 sequence (Q9GZU1 whole entry): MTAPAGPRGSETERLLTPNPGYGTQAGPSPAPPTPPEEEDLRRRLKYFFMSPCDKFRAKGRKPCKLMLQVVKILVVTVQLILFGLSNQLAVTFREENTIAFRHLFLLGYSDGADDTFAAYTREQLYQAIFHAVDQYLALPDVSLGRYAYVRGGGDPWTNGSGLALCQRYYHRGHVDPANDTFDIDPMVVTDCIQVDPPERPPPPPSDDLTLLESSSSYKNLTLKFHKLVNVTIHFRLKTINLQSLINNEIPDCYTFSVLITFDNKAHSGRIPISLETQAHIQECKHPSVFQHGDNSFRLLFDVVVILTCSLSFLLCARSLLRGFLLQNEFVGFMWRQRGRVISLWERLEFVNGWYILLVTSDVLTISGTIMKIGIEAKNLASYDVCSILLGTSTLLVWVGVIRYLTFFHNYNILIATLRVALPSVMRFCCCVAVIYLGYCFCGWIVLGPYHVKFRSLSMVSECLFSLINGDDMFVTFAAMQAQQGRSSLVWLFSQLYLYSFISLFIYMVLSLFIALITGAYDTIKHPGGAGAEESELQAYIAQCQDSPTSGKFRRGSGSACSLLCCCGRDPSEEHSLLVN
SMILES,EC50 (TRPML1; [1]),EC50 (TFEB),EC50 (TRPML1)
"CCC1(CC)CN(c2nc(C(=O)Nc3cc(O)c(OC4CC5CC(C5)C4)c(Cl)c3)c(CC(F)(F)F)o2)C1 (centres unmarked) [Example 261, N-(4-(bicyclo[3.1.1]heptan-3-yloxy)-3-chloro-5-hydroxyphenyl)-2-(3,3-diethylazetidin-1-yl)-5-(2,2,2-trifluoroethyl)oxazole-4-carboxamide]",10 to 1000 nM,10 to 1000 nM,–
"CCC1(OC)CN(c2nc(C(=O)Nc3ccc(O[C@@H]4C[C@@H]5C[C@@H]5C4)c(F)c3)c(CC(F)(F)F)o2)C1 [Example 159, N-(4-(cis-bicyclo[3.1.0]hexan-3-yloxy)-3-fluorophenyl)-2-(3-ethyl-3-methoxyazetidin-1-yl)-5-(2,2,2-trifluoroethyl)oxazole-4-carboxamide]",10 to 1000 nM,10 to 1000 nM,–
"CCc1oc(N2CC(CC)(CC)C2)nc1C(=O)Nc1ccc(O[C@@H]2C[C@@H]3C[C@@H]3C2)c(F)c1 [Example 245, N-(4-(cis-bicyclo[3.1.0]hexan-3-yloxy)-3-fluorophenyl)-2-(3,3-diethylazetidin-1-yl)-5-ethyloxazole-4-carboxamide]",10 to 1000 nM,10 to 1000 nM,–
"Cc1cc(NC(=O)c2nc(N3CCCC3)oc2CCF)cc(F)c1OC1CC2CC(C2)C1 (centres unmarked) [Example 278, N-(4-(bicyclo[3.1.1]heptan-3-yloxy)-3-fluoro-5-methylphenyl)-5-(2-fluoroethyl)-2-(pyrrolidin-1-yl)oxazole-4-carboxamide]",10 to 1000 nM,10 to 1000 nM,–
"O=C(Nc1ccc(N2CCCCC2)c(F)c1)c1nc(N2CCC3(CCOC3)C2)oc1CC(F)(F)F (centres unmarked) [Example 31, N-(3-fluoro-4-(piperidin-1-yl)phenyl)-2-(2-oxa-7-azaspiro[4.4]nonan-7-yl)-5-(2,2,2-trifluoroethyl)oxazole-4-carboxamide]",1000 to 10000 nM,1000 to 10000 nM,–
"COC1(C)CN(c2nc(C(=O)Nc3ccc(N4C5CCCC4CC5)c(C#N)c3)c(CC(F)(F)F)o2)C1 [Example 197, N-(4-(8-azabicyclo[3.2.1]octan-8-yl)-3-cyanophenyl)-2-(3-methoxy-3-methylazetidin-1-yl)-5-(2,2,2-trifluoroethyl)oxazole-4-carboxamide]",–,10 to 1000 nM,10 to 1000 nM
"CC1(C)CN(c2nc(C(=O)Nc3ccc(OC4CCCC4(F)F)c(F)c3)c(CC(F)(F)F)o2)CCO1 (centres unmarked) [Example 4, N-{4-[(2,2-difluorocyclopentyl)oxy]-3-fluorophenyl}-2-(2,2-dimethylmorpholin-4-yl)-5-(2,2,2-trifluoroethyl)-1,3-oxazole-4-carboxamide]",1000 to 10000 nM,10 to 1000 nM,–
"CCC1(CC)CN(c2nc(C(=O)Nc3cc(F)c(O[C@@H]4C[C@@H]5C[C@@H]5C4)c(F)c3)c(CC(F)(F)F)o2)C1 [Example 183, N-(4-(cis-bicyclo[3.1.0]hexan-3-yloxy)-3,5-difluorophenyl)-2-(3,3-diethylazetidin-1-yl)-5-(2,2,2-trifluoroethyl)oxazole-4-carboxamide]",10 to 1000 nM,10 to 1000 nM,–
"CCc1oc(N2CC3CCC3C2)nc1C(=O)Nc1cc(F)c(OC2CC3C[C@H]3C2)c(F)c1 (stereo partly drawn) [Example 241, N-(4-(cis-bicyclo[3.1.0]hexan-3-yloxy)-3,5-difluorophenyl)-2-(3-azabicyclo[3.2.0]heptan-3-yl)-5-ethyloxazole-4-carboxamide]",10 to 1000 nM,10 to 1000 nM,–
"Cc1oc(N2CCC(CO)C2)nc1C(=O)Nc1ccc(N2CCCCC2)c(F)c1 (centres unmarked) [Example 96, N-(3-fluoro-4-(piperidin-1-yl)phenyl)-2-(3-(hydroxymethyl)pyrrolidin-1-yl)-5-methyloxazole-4-carboxamide]",10000 to 100000 nM,10000 to 100000 nM,–
"CCC1(OC)CN(c2nc(C(=O)Nc3cc(C)c(OC4CC5CC(C5)C4)c(F)c3)c(CCF)o2)C1 (centres unmarked) [Example 277, N-(4-(bicyclo[3.1.1]heptan-3-yloxy)-3-fluoro-5-methylphenyl)-2-(3-ethyl-3-methoxyazetidin-1-yl)-5-(2-fluoroethyl)oxazole-4-carboxamide]",10 to 1000 nM,10 to 1000 nM,–
"CCc1oc(N2CCCC2)nc1C(=O)Nc1cc(F)c(O[C@@H]2C[C@@H]3C[C@@H]3C2)c(F)c1 [Example 244, N-(4-(cis-bicyclo[3.1.0]hexan-3-yloxy)-3,5-difluorophenyl)-5-ethyl-2-(pyrrolidin-1-yl)oxazole-4-carboxamide]",10 to 1000 nM,10 to 1000 nM,–
"CCN(C)Cc1oc(N2CC(CC)(OC)C2)nc1C(=O)Nc1cc(F)c(OC2CC3CC(C3)C2)c(F)c1 (centres unmarked) [Example 302, N-(4-(bicyclo[3.1.1]heptan-3-yloxy)-3,5-difluorophenyl)-5-((ethyl(methyl)amino)methyl)-2-(3-ethyl-3-methoxyazetidin-1-yl)oxazole-4-carboxamide]",10 to 1000 nM,10 to 1000 nM,–
"CCCc1oc(N2CCC3CCCC32)nc1C(=O)Nc1cc(F)c(OC2CC3C[C@H]3C2)c(F)c1 (stereo partly drawn) [Example 275, N-(4-(cis-bicyclo[3.1.0]hexan-3-yloxy)-3,5-difluorophenyl)-2-(hexahydrocyclopenta[b]pyrrol-1(2H)-yl)-5-propyloxazole-4-carboxamide]",10 to 1000 nM,10 to 1000 nM,–
"CCc1oc(N2CCCC2)nc1C(=O)Nc1cc(C)c(OC2CC3CC(C3)C2)c(F)c1 (centres unmarked) [Example 225, N-(4-(bicyclo[3.1.1]heptan-3-yloxy)-3-fluoro-5-methylphenyl)-5-ethyl-2-(pyrrolidin-1-yl)oxazole-4-carboxamide]",10 to 1000 nM,10 to 1000 nM,–
"CCC1(OC)CN(c2nc(C(=O)Nc3ccc(OC4CC5CC(C5)C4)c(F)c3)c(CC(F)(F)F)o2)C1 (centres unmarked) [Example 149, N-(4-(bicyclo[3.1.1]heptan-3-yloxy)-3-fluorophenyl)-2-(3-ethyl-3-methoxyazetidin-1-yl)-5-(2,2,2-trifluoroethyl)oxazole-4-carboxamide]",10 to 1000 nM,10 to 1000 nM,–
"O=C(Nc1cc(F)c(OC2CC3C[C@@H]3C2)c(F)c1)c1nc(N2CCC3CCCC32)oc1CC(F)(F)F (stereo partly drawn) [Example 185, N-(4-(cis-bicyclo[3.1.0]hexan-3-yloxy)-3,5-difluorophenyl)-2-(hexahydrocyclopenta[b]pyrrol-1(2H)-yl)-5-(2,2,2-trifluoroethyl)oxazole-4-carboxamide]",10 to 1000 nM,10 to 1000 nM,–
"O=C(Nc1ccc(OC2CCCC2(F)F)c(F)c1)c1nc(N2CCC(CO)C2)oc1CC(F)(F)F (centres unmarked) [Example 3, N-(4-((2,2-difluorocyclopentyl)oxy)-3-fluorophenyl)-2-(3-(hydroxymethyl)pyrrolidin-1-yl)-5-(2,2,2-trifluoroethyl)oxazole-4-carboxamide]",1000 to 10000 nM,1000 to 10000 nM,–
"CCC1(CC)CN(c2nc(C(=O)Nc3cc(F)c(O[C@@H]4C[C@@H]5C[C@@H]5C4)c(F)c3)c(CCF)o2)C1 [Example 287, N-(4-(cis-bicyclo[3.1.0]hexan-3-yloxy)-3,5-difluorophenyl)-2-(3,3-diethylazetidin-1-yl)-5-(2-fluoroethyl)oxazole-4-carboxamide]",10 to 1000 nM,10 to 1000 nM,–
"O=C(Nc1ccc(OC2COCC2(F)F)c(F)c1)c1nc(N2CCCC2)oc1CC(F)(F)F (racemic) [Example 71, N-(4-((4,4-difluorotetrahydrofuran-3-yl)oxy)-3-fluorophenyl)-2-(pyrrolidin-1-yl)-5-(2,2,2-trifluoroethyl)oxazole-4-carboxamide]",10 to 1000 nM,10 to 1000 nM,–
"O=C(Nc1cc(F)c(O[C@@H]2C[C@@H]3C[C@@H]3C2)c(F)c1)c1nc(N2CCC3CCCCC32)oc1CC(F)(F)F (stereo partly drawn) [Example 163, N-(4-(cis-bicyclo[3.1.0]hexan-3-yloxy)-3,5-difluorophenyl)-2-(octahydro-1H-indol-1-yl)-5-(2,2,2-trifluoroethyl)oxazole-4-carboxamide]",10 to 1000 nM,10 to 1000 nM,–
"CCC1(OC)CN(c2nc(C(=O)Nc3cc(F)c(N4CC5CC(C5)C4)c(F)c3)c(CC(F)(F)F)o2)C1 [Example 203, N-(4-(3-azabicyclo[3.1.1]heptan-3-yl)-3,5-difluorophenyl)-2-(3-ethyl-3-methoxyazetidin-1-yl)-5-(2,2,2-trifluoroethyl)oxazole-4-carboxamide]",–,10 to 1000 nM,10 to 1000 nM
